{"source": "patent US8637684B2", "about": "“Tautomycetin and tautomycetin analog biosynthesis” (Wisconsin Alumni Research Foundation, priority 2010, dated 2014)", "key": {"[1]": {"target": "T1, SHP2 (Homo sapiens, UniProt Q06124)", "T1 construct": "The expression and purification of the SHP2 catalytic domain (residues 262-528) were described previously; made in house", "T1 sequence (Q06124 262-528)": "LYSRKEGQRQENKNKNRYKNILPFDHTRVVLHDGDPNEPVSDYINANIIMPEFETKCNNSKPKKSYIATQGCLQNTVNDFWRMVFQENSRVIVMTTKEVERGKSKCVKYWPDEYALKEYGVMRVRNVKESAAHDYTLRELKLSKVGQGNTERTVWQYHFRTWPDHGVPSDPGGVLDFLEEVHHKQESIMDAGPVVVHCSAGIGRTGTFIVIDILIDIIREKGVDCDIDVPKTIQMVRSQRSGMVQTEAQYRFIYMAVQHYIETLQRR", "assay": "PTP activity assay with pNPP as substrate: SHP2", "type": "biochemical", "protocol": "The effect of the compounds on PTP-catalyzed hydrolysis of p-nitrophenyl phosphate (pNPP) was assessed at pH 7 and 25° C. Members of the PTP superfamily that were included in the screen included the cytosolic PTPs, PTP1B, SHP1, SHP2, Lyp, HePTP, Meg2, and FAP1, the receptor-like PTPs, CD45, LAR, and PTPα, the dual specificity phosphatases VHR, VHX, and Cdc14, and the low molecular weight PTP.\nTherefore, all of the IC50 values reported in this study directly reflect the true affinity of the compound for the enzymes tested."}, "[2]": {"system": "panel of PTPs (PTP1B, SHP1, SHP2, Lyp, HePTP, Meg2, FAP1, CD45, LAR, PTPα, VHR, VHX, Cdc14, low molecular weight PTP)", "assay": "Screen against a panel of PTPs at 10 μM compound (pNPP hydrolysis)", "type": "biochemical", "conditions": "pH 7, 25° C.", "description": "The PTP activity was assayed using pNPP as a substrate at 25° C. in 50 mM 3,3-dimethylglutarate buffer, pH 7.0, containing 1 mM EDTA with an ionic strength of 0.15 M adjusted by NaCl. TTM, TTN and the engineered analogs were analyzed for inhibition of a panel of PTPs at 10 μM compound concentration. For each enzyme screened, test compounds were diluted to 20 μM in 100 μL and combined with 50 μL pNPP at a concentration of 4×Km. The reaction was initiated by the addition of 50 μL of 4× concentrated enzyme and pNPP was allowed to convert to the product p-nitrophenol. The reaction was quenched by the addition of 50 μL of 5N NaOH. Nonenzymatic hydrolysis of pNPP was corrected by measuring the control without the addition of enzyme. Production of p-nitrophenol was monitored by a Spectra MAX385 microplate spectrophotometer (Molecular Devices) at 405 nm using a molar extinction coefficient of 18,000 M^−1 cm^−1. IC50 values were calculated by fitting the absorbance at 405 nm versus inhibitor concentration to the following equation: AI/A0=IC50/(IC50+[I]) where AI is the absorbance at 405 nm of the sample in the presence of inhibitor; Ao is the absorbance at 405 nm in the absence of inhibitor; and [I] is the concentration of the inhibitor. […]"}, "[3]": {"system": "TCR-mediated tyrosine phosphorylation in Jurkat T cells", "assay": "Anti-CD3 (TCR) induced tyrosine phosphorylation in Jurkat T cells, immunoblot", "type": "cell-based", "conditions": "2-4 μM, 2 hours pretreatment, anti-CD3 stimulation", "description": "(§1) Jurkat T cells were grown at 37° C. under an atmosphere of 5% CO2 in RPMI medium 1640 supplemented with 10% FBS. Cells were pretreated with different concentrations of TTN, TTN D-1, or TTM for 2 hours and stimulated with […] anti-CD3 antibody (OKT3; eBioscience) for 5 min and 30 min, respectively. Subsequently, cells were spinned down at 2000 rpm in 4° C., and cell pellets were lysed in 50 mM Tris-HCl (pH 7.5), 150 mM NaCl, 10% glycerol, 1% NP-40, 50 mM NaF, 10 mM pyrophosphate, 5 mM idoacetate, 1 mM sodium orthovanadate, and the protease inhibitor mixture. After 30 min lysing on ice, the cell lysates were centrifuged at 13,200 rpm for 15 min. Total cellular proteins were separated by SDS/PAGE and transferred electrophoretically to nitrocellulose membrane, which was immunoblotted by appropriate antibodies followed by incubation with HRP-conjugated secondary antibodies. Blots were developed using Pierce Pico ECL reagent (Thermo) according to the manufacturer's instructions.\n(§2) TTN induces immunosuppression by suppression of TCR-mediated tyrosine phosphorylation and ERK1/2 activity in T cells (Shim et al., 2002). However, the mechanism of action for TTN's ability to block TCR signaling remains undefined. […]"}, "[4]": {"system": "TCR-mediated ERK1/2 activation in Jurkat T cells", "assay": "Anti-CD3 (TCR) induced ERK1/2 activation in Jurkat T cells, immunoblot", "type": "cell-based", "conditions": "2 hours pretreatment, anti-CD3 stimulation", "description": "as §1, §2"}, "[5]": {"system": "PP1", "conditions": "literature values; cited from earlier work"}, "[6]": {"system": "PP2A", "conditions": "literature values; cited from earlier work"}}, "data": [{"smiles": "CO[C@H]([C@H](O)CC(=O)[C@@H](C)[C@@H](O)CC[C@@H](C)[C@@H]1O[C@]2(CC[C@@H](C)[C@H](CC[C@H](C)C(C)=O)O2)CC[C@@H]1C)[C@H](OC(=O)C[C@@H](O)C1=C(C)C(=O)OC1=O)C(C)C", "note": "[TTM, tautomycin, reference compound]", "values": [{"measurement": "SHP2 inhibitory activity (in words)", "setting": "[1]", "result": "does not inhibit SHP2 activity"}, {"measurement": "inhibitory activity against the panel of PTPs", "setting": "[2]", "result": "neither TTM nor its analogs exhibited any inhibitory activity"}, {"measurement": "effect on TCR-mediated tyrosine phosphorylation", "setting": "[3]", "result": "had no effect"}, {"measurement": "effect on TCR-mediated ERK1/2 activation", "setting": "[4]", "result": "no appreciable change"}, {"measurement": "IC50", "setting": "[5]", "result": "22 to 32", "unit": "nM"}, {"measurement": "IC50", "setting": "[6]", "result": "22 to 32", "unit": "nM"}]}]}
